We go through one molecule from patent US11110303B2, “Hapten-enhanced chemoimmunotherapy by ultra-minimum incision personalized intratumoral chemoimmunotherapy” (priority 2014, dated 2021).

Where two headings read alike, the source gives them in different places.

As to `Nc1ccn([C@@H]2O[C@H](CO)[C@@H](O)[C@@H]2O)c(=O)n1` [Ara-C alone, Cytosine Arabinoside], the “drug retention in tumor” value (12 hours after intratumoral injection) was 16%. Further, the “retention rate of Ara-C in tumor” value came to 0% (24 hours after intratumoral injection), 100% (fifteen minutes after intratumoral injection) and 16% (four hours after intratumoral injection).
